Measurements published in US10722495B2, “Cyanoindazole compounds and uses thereof” (Incyte Corporation, priority 2017, dated 2020).

Target: HPK1 (Homo sapiens (Human), UniProt Q92918)
Experiment: HPK1 Kinase Binding Assay
Details: active HPK1 (SignalChem M23-11G), tracer 222, LanthaScreen Eu-Anti GST antibody, one hour incubation at 25° C.
Method: Example A. HPK1 Kinase Binding Assay
A stock solution of 1 mM test compound was prepared in DMSO. The compound plate was prepared by 3-fold and 11-point serial dilutions. 0.1 μL of the compound in DMSO was transferred from the compound plate to the white 384 well polystyrene plates. The assay buffer contained 50 mM HEPES, pH 7.5, 0.01% Tween-20, 5 mM MgCl2, 0.01% BSA, and 5 mM DTT. 5 μl of 4 nM active HPK1 (SignalChem M23-11G) prepared in the buffer was added to the plate. The enzyme concentration given was based on the given stock concentration reported by the vender. 5 μl of 18 nM tracer 222 (ThermoFisher PV6121) and 4 nM LanthaScreen Eu-Anti GST antibody (ThermoFisher PV5595) were added. After one hour incubation at 25° C., the plates were read on a PHERAstar FS plate reader (BMG Labtech). Ki values were determined.

Chain of HPK1 (Q92918 1-346): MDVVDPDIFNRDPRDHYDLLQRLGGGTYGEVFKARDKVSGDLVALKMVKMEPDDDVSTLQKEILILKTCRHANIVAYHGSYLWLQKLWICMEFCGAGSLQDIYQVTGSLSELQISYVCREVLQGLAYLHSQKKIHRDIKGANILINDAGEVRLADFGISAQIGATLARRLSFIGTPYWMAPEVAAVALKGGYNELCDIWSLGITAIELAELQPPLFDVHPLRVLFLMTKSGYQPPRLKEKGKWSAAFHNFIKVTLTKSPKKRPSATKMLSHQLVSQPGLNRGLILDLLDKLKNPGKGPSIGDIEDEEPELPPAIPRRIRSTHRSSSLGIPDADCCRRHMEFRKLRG

Ki, ≤ 100 nM:
CCn1cc(-c2n[nH]c3cc(C#N)c(-c4c(C)cc(CNC)cc4F)cc23)cn1 [Example 1, 3-(1-Ethyl-1H-pyrazol-4-yl)-5-(2-fluoro-6-methyl-4-((methylamino)methyl)phenyl)-1H-indazole-6-carbonitrile]
CNCc1cc(C)c(-c2cc3c(-c4cnn(C5CC5)c4)n[nH]c3cc2C#N)c(F)c1 [Example 2, 3-(1-Cyclopropyl-1H-pyrazol-4-yl)-5-(2-fluoro-6-methyl-4-((methylamino)methyl)phenyl)-1H-indazole-6-carbonitrile]
CNCc1cc(C)c(-c2cc3c(-c4cnn(CC(F)(F)F)c4)n[nH]c3cc2C#N)c(F)c1 [Example 3, 5-(2-Fluoro-6-methyl-4-((methylamino)methyl)phenyl)-3-(1-(2,2,2-trifluoroethyl)-1H-pyrazol-4-yl)-1H-indazole-6-carbonitrile]
CNCc1cc(C)c(-c2cc3c(-c4cn[nH]c4)n[nH]c3cc2C#N)c(F)c1 [Example 4, 5-(2-Fluoro-6-methyl-4-((methylamino)methyl)phenyl)-3-(1H-pyrazol-4-yl)-1H-indazole-6-carbonitrile]
CNCc1cc(C)c(-c2cc3c(-c4cnn(-c5ccccc5Cl)c4)n[nH]c3cc2C#N)c(F)c1 [Example 5, 3-(1-(2-Chlorophenyl)-1H-pyrazol-4-yl)-5-(2-fluoro-6-methyl-4-((methylamino)methyl)phenyl)-1H-indazole-6-carbonitrile]
CNCc1cc(C)c(-c2cc3c(-c4cnn(C(C)C)c4)n[nH]c3cc2C#N)c(F)c1 [Example 6, 5-(2-Fluoro-6-methyl-4-((methylamino)methyl)phenyl)-3-(1-isopropyl-1H-pyrazol-4-yl)-1H-indazole-6-carbonitrile]
CNCc1cc(C)c(-c2cc3c(-c4ccc(CO)cc4)n[nH]c3cc2C#N)c(F)c1 [Example 7, 5-(2-Fluoro-6-methyl-4-((methylamino)methyl)phenyl)-3-(4-(hydroxymethyl)phenyl)-1H-indazole-6-carbonitrile]
CNCc1cc(C)c(-c2cc3c(-c4ccc(C(=O)NC)cc4)n[nH]c3cc2C#N)c(F)c1 [Example 8, 4-(6-Cyano-5-(2-fluoro-6-methyl-4-((methylamino)methyl)phenyl)-1H-indazol-3-yl)-N-methylbenzamide]
CNCc1cc(C)c(-c2cc3c(-c4ccc(C(=O)N(C)C)cc4)n[nH]c3cc2C#N)c(F)c1 [Example 9, 4-(6-Cyano-5-(2-fluoro-6-methyl-4-((methylamino)methyl)phenyl)-1H-indazol-3-yl)-N,N-dimethylbenzamide]
CNCc1cc(C)c(-c2cc3c(-c4ccc(NC(C)=O)cc4)n[nH]c3cc2C#N)c(F)c1 [Example 10, N-(4-(6-Cyano-5-(2-fluoro-6-methyl-4-((methylamino)methyl)phenyl)-1H-indazol-3-yl)phenyl)acetamide]
CNCc1cc(C)c(-c2cc3c(-c4ccc(C)cc4)n[nH]c3cc2C#N)c(F)c1 [Example 11, 5-(2-Fluoro-6-methyl-4-((methylamino)methyl)phenyl)-3-p-tolyl-1H-indazole-6-carbonitrile]
CNCc1cc(C)c(-c2cc3c(-c4cccc(OC)c4)n[nH]c3cc2C#N)c(F)c1 [Example 12, 5-(2-Fluoro-6-methyl-4-((methylamino)methyl)phenyl)-3-(3-methoxyphenyl)-1H-indazole-6-carbonitrile]
CNCc1cc(C)c(-c2cc3c(-c4ccc(OC)cc4)n[nH]c3cc2C#N)c(F)c1 [Example 13, 5-(2-Fluoro-6-methyl-4-((methylamino)methyl)phenyl)-3-(4-methoxyphenyl)-1H-indazole-6-carbonitrile]
CNCc1cc(C)c(-c2cc3c(-c4ccc(C(F)(F)F)cc4)n[nH]c3cc2C#N)c(F)c1 [Example 14, 5-(2-Fluoro-6-methyl-4-((methylamino)methyl)phenyl)-3-(4-(trifluoromethyl)phenyl)-1H-indazole-6-carbonitrile]
CNCc1cc(C)c(-c2cc3c(-c4ccc(C5CC5)cc4)n[nH]c3cc2C#N)c(F)c1 [Example 15, 3-(4-Cyclopropylphenyl)-5-(2-fluoro-6-methyl-4-((methylamino)methyl)phenyl)-1H-indazole-6-carbonitrile]
CNCc1cc(C)c(-c2cc3c(-c4ccc(CC#N)cc4)n[nH]c3cc2C#N)c(F)c1 [Example 16, 3-(4-(Cyanomethyl)phenyl)-5-(2-fluoro-6-methyl-4-((methylamino)methyl)phenyl)-1H-indazole-6-carbonitrile]
CNCc1cc(C)c(-c2cc3c(-c4ccc(C(=O)NC)c(F)c4)n[nH]c3cc2C#N)c(F)c1 [Example 17, 4-(6-Cyano-5-(2-fluoro-6-methyl-4-((methylamino)methyl)phenyl)-1H-indazol-3-yl)-2-fluoro-N-methylbenzamide]
CNCc1cc(C)c(-c2cc3c(-c4ccc(S(C)(=O)=O)cc4)n[nH]c3cc2C#N)c(F)c1 [Example 18, 5-(2-Fluoro-6-methyl-4-((methylamino)methyl)phenyl)-3-(4-(methylsulfonyl)phenyl)-1H-indazole-6-carbonitrile]
CNCc1cc(C)c(-c2cc3c(-c4ccc(C(C)(C)C#N)cc4)n[nH]c3cc2C#N)c(F)c1 [Example 19, 3-(4-(2-Cyanopropan-2-yl)phenyl)-5-(2-fluoro-6-methyl-4-((methylamino)methyl)phenyl)-1H-indazole-6-carbonitrile]
CNCc1cc(C)c(-c2cc3c(-c4ccc(C5(C#N)CC5)cc4)n[nH]c3cc2C#N)c(F)c1 [Example 20, 3-(4-(1-Cyanocyclopropyl)phenyl)-5-(2-fluoro-6-methyl-4-((methylamino)methyl)phenyl)-1H-indazole-6-carbonitrile]
CNCc1cc(C)c(-c2cc3c(-c4ccc(C(=O)N(C)C)c(F)c4)n[nH]c3cc2C#N)c(F)c1 [Example 21, 4-(6-Cyano-5-(2-fluoro-6-methyl-4-((methylamino)methyl)phenyl)-1H-indazol-3-yl)-2-fluoro-N,N-dimethylbenzamide]
CNCc1cc(C)c(-c2cc3c(-c4ccc(C(=O)NC(C)C)cc4Cl)n[nH]c3cc2C#N)c(F)c1 [Example 22, 3-Chloro-4-(6-cyano-5-(2-fluoro-6-methyl-4-((methylamino)methyl)phenyl)-1H-indazol-3-yl)-N-isopropylbenzamide]
CNCc1cc(C)c(-c2cc3c(-c4ccc(S(C)(=O)=O)c(F)c4)n[nH]c3cc2C#N)c(F)c1 [Example 23, 3-(3-Fluoro-4-(methylsulfonyl)phenyl)-5-(2-fluoro-6-methyl-4-((methylamino)methyl)phenyl)-1H-indazole-6-carbonitrile]
CNCc1cc(C)c(-c2cc3c(-c4ccc(S(C)(=O)=O)cc4Cl)n[nH]c3cc2C#N)c(F)c1 [Example 24, 3-(2-Chloro-4-(methylsulfonyl)phenyl)-5-(2-fluoro-6-methyl-4-((methylamino)methyl)phenyl)-1H-indazole-6-carbonitrile]
CNCc1cc(C)c(-c2cc3c(-c4ccc(S(=O)(=O)C(C)C)cc4)n[nH]c3cc2C#N)c(F)c1 [Example 25, 5-(2-Fluoro-6-methyl-4-((methylamino)methyl)phenyl)-3-(4-(isopropylsulfonyl)phenyl)-1H-indazole-6-carbonitrile]
CNCc1cc(C)c(-c2cc3c(-c4cnn(C)c4)n[nH]c3cc2C#N)c(F)c1 [Example 26, 5-(2-Fluoro-6-methyl-4-((methylamino)methyl)phenyl)-3-(1-methyl-1H-pyrazol-4-yl)-1H-indazole-6-carbonitrile]
CNCc1cc(C)c(-c2cc3c(-c4cnc(N5CCN(C)CC5)nc4)n[nH]c3cc2C#N)c(F)c1 [Example 27, 5-(2-Fluoro-6-methyl-4-((methylamino)methyl)phenyl)-3-(2-(4-methylpiperazin-1-yl)pyrimidin-5-yl)-1H-indazole-6-carbonitrile]
CNCc1cc(C)c(-c2cc3c(-c4ccc(N5CCOCC5)nc4)n[nH]c3cc2C#N)c(F)c1 [Example 28, 5-(2-Fluoro-6-methyl-4-((methylamino)methyl)phenyl)-3-(6-morpholinopyridin-3-yl)-1H-indazole-6-carbonitrile]
CNCc1cc(C)c(-c2cc3c(-c4ccc(NC(C)=O)nc4)n[nH]c3cc2C#N)c(F)c1 [Example 29, N-(5-(6-Cyano-5-(2-fluoro-6-methyl-4-((methylamino)methyl)phenyl)-1H-indazol-3-yl)pyridin-2-yl)acetamide]
CNCc1cc(C)c(-c2cc3c(-c4ccc(N5CCN(C(C)=O)CC5)nc4)n[nH]c3cc2C#N)c(F)c1 [Example 30, 3-(6-(4-Acetylpiperazin-1-yl)pyridin-3-yl)-5-(2-fluoro-6-methyl-4-((methylamino)methyl)phenyl)-1H-indazole-6-carbonitrile]
CNCc1cc(C)c(-c2cc3c(-c4ccnc(C)c4)n[nH]c3cc2C#N)c(F)c1 [Example 31, 5-(2-Fluoro-6-methyl-4-((methylamino)methyl)phenyl)-3-(2-methylpyridin-4-yl)-1H-indazole-6-carbonitrile]
